Measured values taken from publication PMC10993450, “New benzimidazole derivative compounds with in vitro fasciolicidal properties” (Parasites & Vectors, 2024).

Legend:
[1] = Cytotoxicity assay, alamarBlue; format: cell-based, human; conditions: human, HepG2 cells; 72 h exposure, alamarBlue; read-out: CC50 Hep-G2
Experimental: The effect of the BZDs on cell viability was assessed on a human hepatocarcinoma HepG2 (ATCC® HB-8065™, USA) cell line. Only compounds screened at a concentration of 10 µM were evaluated. The detailed protocol is described in a previous study carried out by our research group. Briefly, 10,000 cells were seeded on 96-well plates and incubated with different concentrations of the compounds ranging from 1 to 100 µM at 37 °C and 5% CO2. After 72 h of exposure, viability of the cells was assessed using the alamarBlue (Fisher Scientific®, Spain) staining method according to the manufacturer’s recommendations.
The data are represented as mean ± standard error of media (SEM).

[2] = Intestinal tolerability assay on murine intestinal organoids; format: cell-based, mouse; conditions: C57BL/6, mouse, murine small-intestinal organoids, 72 h
Experimental: The murine intestinal organoid cultures were prepared following Stemcell Technologies™ protocols (https://www.stemcell.com/intestinal-epithelial-organoid-culture-with-intesticult-organoid-growth-medium-mouse-lp.html#protocols). Small intestine sections from C57BL/6 mice were excised, washed with ice-cold PBS, minced, and 2 mm segments were washed extensively. The segments were treated with Gentle Cell Dissociation Reagent (Stemcell Technologies™, Canada), resuspended in ice-cold PBS with 0.1% BSA and filtered. This process was repeated four times, resulting in four fractions. Cells from each fraction were centrifuged, washed, and resuspended in ice-cold DMEM/F12 supplemented with glutamine and HEPES 15 mM. Each fraction was mixed with Geltrex GFR LDEV-free (Gibco, Thermo Fisher Scientific, USA) and IntestiCult™ Organoid Grow Medium Mouse (Stemcell Technologies™, Canada), added to a 24-well plate and incubated at 37 °C for 10 min for matrix polymerization. The organoids were cultured in IntestiCult™ Organoid Grow Medium Mouse, with medium changes every 2 days and splitting after 7 days.
For intestinal tolerability assays, selected hit compounds were tested in mouse intestinal organoids at 25 and 50 µM final concentrations. The protocol, based on a previous work, involved the addition of Gentle Cell Dissociation Reagent (Stemcell Technologies™, Canada) on matrix domes, the disruption of the matrix, and the incubation the suspension. After centrifugation, cells were resuspended in DMEM/F12 supplemented with glutamine and HEPES 15 mM and centrifugated again. The pellet was resuspended in a mix of Geltrex GFR LDEV-free and IntestiCult™ Organoid Grow Medium Mouse. The mix was plated in 384-well plates, and after 4 days, mature organoids were exposed to the compounds. The positive control was hydrogen peroxide (0.15% v/v), and the negative control was DMSO (0.2%). Viability after 72 h was assessed using the alamarBlue assay.

Caco2 cells = tested on: Caco2 cells; design: method as in doi:10.1016/j.molstruc.2022.133735; conditions: cited from earlier work

Cc1ccc2[nH]c(NCc3cccs3)nc2c1 [BZD31]
CC50 at 72 h [1]: > 50 µM
viability at 72 h, 25 µM [2]: 60.5%
viability at 72 h, 50 µM [2]: 52.4%

Cc1ccc2[nH]c(NC(=O)c3ccccc3)nc2c1 [BZD46]
CC50 at 72 h [1]: > 100 µM
viability at 72 h, 25 µM [2]: 99.7%
viability at 72 h, 50 µM [2]: > 87%

COc1ccc2[nH]c(NC(=O)c3ccccc3)nc2c1 [BZD56]
CC50 at 72 h [1]: > 100 µM
viability at 72 h, 25 µM [2]: 82.5%
viability at 72 h, 50 µM [2]: > 87%

O=C(Nc1nc2cc(Cl)ccc2[nH]1)c1ccccc1 [BZD59]
CC50 at 72 h [1]: > 100 µM
viability at 72 h, 25 µM [2]: 82.7%
viability at 72 h, 50 µM [2]: 56.7%
CC50 (Caco2 cells): ~62 µM
